Source: US20140315234A1, “METHOD TO GENERATE DOPAMINERGIC NEURONS FROM MOUSE AND HUMAN CELLS” (priority 2010, published 2014)
Where two headings read alike, the source gives them in different places.

Columns and labels:
K+ channel = assay type: cell-based, mouse
K+ currents = assay: Pharmacological suppression of K+ currents in human iDAN cells; assay type: cell-based
Method: (§1) Recordings were performed on reprogrammed mouse and human fibroblasts and primary mesencephalic DA neurons. […] Only cells without signs of detachment from the substrate were used for recordings. Cells were perfused continuously with HEPES-buffered saline (HBS) of the following composition (in mM): 140 NaCl, 5 KCl, 2 CaCl2, 2 MgCl2, 15 HEPES, and 25 glucose, pH 7.4. The patch pipette solution contained (in mM): 130 K-gluconate, 10 KCl, 0.5 CaCl2, 15 HEPES, 5 EGTA, 8 NaCl, 2 MgATP, 0.3 Na2GTP, and 10 glucose, pH adjusted to 7.2 with KOH. Action potentials were recorded in the on-cell and the current-clamp whole-cell configuration. A current was injected to have membrane potentials around −60 mV, and step currents from −50 pA to 40 pA were injected to elicit action potentials. Na^+ currents and composite K^+ currents were recorded in the voltage-clamp configuration by delivering voltage steps ranging from −100 mV to +20 mV in cells held at −60 mV. Delayed rectifier K+ currents were activated by 0.5 s voltage steps from −40 mV to +20 mV after a 0.5 s-long step to −40 mV.

[1] = system: Na+ voltage-gated channels; assay type: cell-based, mouse
Na+ currents = assay type: cell-based, human
D2/D3 receptor = assay type: cell-based, mouse
Method: as §1

Question: Nc1ccncc1 [4-AP, 4-aminopyridine] was tested. Which “effect on outward K+ currents” value (K+ channel; 4-AP 3 mM, TEA 10 mM, in the presence of TTX, n=4) did it give?
Answer: The value was “inhibition of outward currents”.

Question: And the “effect on K+ currents and action potentials” value (K+ currents)?
Answer: The value was “Suppression”.

Question: CC[N+](CC)(CC)CC [TEA, tetraethylammonium] was tested. Which “effect on outward K+ currents” value (K+ channel) did it give?
Answer: Its value is “inhibition of outward currents”.

Question: Which results are given for NC1=N[C@H](O)[C@H]2[C@H]3O[C@]4(O)O[C@@H]([C@@H](O)[C@@]2(N1)[C@@H]4O)[C@]3(O)CO [TTX, tetrodotoxin]?
Answer: block of the fast inward current [1]: complete block; effect on Na+ currents and action potentials (Na+ currents): Suppression

Question: How did the “effect on neuronal firing” value (D2/D3 receptor) turn out when CCCN1CCC[C@@H]2Cc3n[nH]cc3C[C@H]21 [quinpirole] was run?
Answer: Its value is “drastically suppressed neuronal firing in 6 of 10 recorded cells”.
